Assay: Stability of cryodesiccated composition
Assay type: physicochemical
Conditions: room temperature
Excerpt: Once formulated, the micelles of the invention may be freeze-dried or lyophilized for long-term storage if desired. […] If the composition is freeze-dried, it may be packed in vials for subsequent reconstitution with a suitable aqueous solution, such as sterile water or sterile water containing a saccharide and/or other suitable excipients, just prior to use. For example, reconstitution may be by simply adding water for injection just prior to administration.

benzoporphyrin derivative monoacid ring A [verteporfin]
period over which potency was maintained: at least nine months

From patent publication US20040013717A1, “PEG-lipid containing formulations” (priority 2001, published 2004)
